SMILES strings stand for the structures.

The assay deals with rabbit skeletal myofibrils (fast skeletal myofibrils). The assay is described as follows: Activation of fast skeletal myofibrils (PUMA assay, AC1.4). Type of assay: biochemical. The note with it: calcium at pCa25, AC1.4 = concentration at which the compound increased the enzymatic activity. Summed up:
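Detergent-washed rabbit psoas myofibrils (~90% fast fibers), calcium set to give 25% of maximal rate (pCa25). ATPase followed by pyruvate kinase/lactate dehydrogenase-coupled NADH oxidation, absorbance at 340 nm. PM12 buffer: 12 mM PIPES, 2 mM MgCl2, 1 mM DTT, pH 6.8.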
In the case of `CC[C@H](C)[C@H]1C(=O)Nc2ccccc2CN1C(=O)c1cnccn1` [Compound 108, (S)-3-((S)-sec-butyl)-4-(pyrazine-2-carbonyl)-1,3,4,5-tetrahydro-2H-benzo[e][1,4]diazepin-2-one], the AC1.4 was 0.19 µM.

Consider `CC[C@H](C)[C@H]1C(=O)Nc2ccccc2CN1C(=O)c1cnc(C(N)=O)cn1` [Compound 109, 5-((S)-3-((S)-sec-butyl)-2-oxo-2,3,4,5-tetrahydro-1H-benzo[e][1,4]diazepine-4-carbonyl)pyrazine-2-carboxamide], for which the AC1.4 was determined as 0.17 µM.

`CC[C@H](C)[C@H]1C(=O)Nc2ccccc2CN1C(=O)CS(N)(=O)=O` [Compound 110, 2-((S)-3-((S)-sec-butyl)-2-oxo-1,2,3,5-tetrahydro-4H-benzo[e][1,4]diazepin-4-yl)-2-oxoethane-1-sulfonamide]: the AC1.4 was 1.36 µM.

Turning to `CC[C@H](C)[C@H]1C(=O)Nc2ccccc2CN1C(=O)CS(C)(=O)=O` [Compound 111, (S)-3-((S)-sec-butyl)-4-(2-(methylsulfonyl)acetyl)-1,3,4,5-tetrahydro-2H-benzo[e][1,4]diazepin-2-one], the AC1.4 worked out at 4.90 µM.

With `CC[C@H](C)[C@H]1C(=O)Nc2ccccc2CN1/C(N)=N/S(C)(=O)=O` [Compound 112, (S,E)-3-((S)-sec-butyl)-N′-(methylsulfonyl)-2-oxo-1,2,3,5-tetrahydro-4H-benzo[e][1,4]diazepine-4-carboximidamide], the AC1.4 amounted to 0.81 µM.

For the compound `CC[C@H](C)[C@H]1C(=O)Nc2ccccc2CN1/C(N)=N/C(C)=O` [Compound 113, N-((E)-amino((S)-3-((S)-sec-butyl)-2-oxo-1,2,3,5-tetrahydro-2H-benzo[e][1,4]diazepin-4-yl)methylene)acetamide], the AC1.4 was 0.15 µM.

In the case of `CC[C@H](C)[C@H]1C(=O)Nc2ccccc2CN1c1ncccn1` [Compound 114, (S)-3-((S)-sec-butyl)-4-(pyrimidin-2-yl)-1,3,4,5-tetrahydro-2H-benzo[e][1,4]diazepin-2-one], the AC1.4 was determined as 0.05 µM.

For `CC[C@H](C)[C@H]1C(=O)Nc2ccccc2CN1c1cc(=O)n(C)cn1` [Compound 115, (S)-3-((S)-sec-butyl)-4-(1-methyl-6-oxo-1,6-dihydropyrimidin-4-yl)-1,3,4,5-tetrahydro-2H-benzo[e][1,4]diazepin-2-one], the AC1.4 was found to be 0.08 µM.

On to `CC[C@H](C)[C@H]1C(=O)Nc2ccccc2CN1c1nc(OC)cc(OC)n1` [Compound 116, (S)-3-((S)-sec-butyl)-4-(4,6-dimethoxypyrimidin-2-yl)-1,3,4,5-tetrahydro-2H-benzo[e][1,4]diazepin-2-one], for which the AC1.4 is 0.05 µM.

Turning to `CC[C@H](C)[C@H]1C(=O)Nc2ccccc2CN1c1nc(N)nn1C` [Compound 117, (S)-4-(3-amino-1-methyl-1H-1,2,4-triazol-5-yl)-3-((S)-sec-butyl)-1,3,4,5-tetrahydro-2H-benzo[e][1,4]diazepin-2-one], the AC1.4 amounted to 0.07 µM.

In the case of `CC[C@H](C)[C@H]1C(=O)Nc2ccccc2CN1c1nc(N)n(C)n1` [Compound 118, (S)-4-(5-amino-1-methyl-1H-1,2,4-triazol-3-yl)-3-((S)-sec-butyl)-1,3,4,5-tetrahydro-2H-benzo[e][1,4]diazepin-2-one], the AC1.4 was determined as 0.08 µM.

As to `CC[C@H](C)[C@H]1C(=O)Nc2ccccc2CN1S(=O)(=O)CCOC` [Compound 119, (S)-3-((S)-sec-butyl)-4-((2-methoxyethyl)sulfonyl)-1,3,4,5-tetrahydro-2H-benzo[e][1,4]diazepin-2-one], the AC1.4 worked out at 2.44 µM.

For the compound `CC[C@H](C)[C@H]1C(=O)Nc2ccccc2CN1S(=O)(=O)NC` [Compound 120, (S)-3-((S)-sec-butyl)-N-methyl-2-oxo-1,2,3,5-tetrahydro-4H-benzo[e][1,4]diazepine-4-sulfonamide], the AC1.4 was found to be 0.12 µM.

On to `NC(=O)N1Cc2ccccc2NC(=O)[C@@H]1C1CCC1` [Compound 121, (S)-3-cyclobutyl-2-oxo-1,2,3,5-tetrahydro-4H-benzo[e][1,4]diazepine-4-carboxamide], for which the AC1.4 stood at 4.80 µM.

As to `Cn1cc(C(=O)N2Cc3ccccc3NC(=O)[C@@H]2C2CCC2)cn1` [Compound 122, (S)-3-cyclobutyl-4-(1-methyl-1H-pyrazole-4-carbonyl)-1,3,4,5-tetrahydro-2H-benzo[e][1,4]diazepin-2-one], the AC1.4 was determined as 3.16 µM.

As to `NC(=O)N1Cc2ccccc2NC(=O)[C@@H]1C1CCCC1` [Compound 123, (S)-3-cyclopentyl-2-oxo-1,2,3,5-tetrahydro-4H-benzo[e][1,4]diazepine-4-carboxamide], the AC1.4 turned out to be 0.35 µM.

Regarding `O=C1Nc2ccccc2CN(C(=O)CCO)[C@H]1C1CCCCC1` [Compound 124, (S)-3-cyclohexyl-4-(3-hydroxypropanoyl)-1,3,4,5-tetrahydro-2H-benzo[e][1,4]diazepin-2-one], the AC1.4 turned out to be 0.38 µM.

Take `NC(=O)c1ccc(C(=O)N2Cc3ccccc3NC(=O)[C@@H]2C2CCCCC2)cc1` [Compound 125, (S)-4-(3-cyclohexyl-2-oxo-2,3,4,5-tetrahydro-1H-benzo[e][1,4]diazepine-4-carbonyl)benzamide]: the AC1.4 amounted to 0.29 µM.

Turning to `O=C1Nc2ccccc2CN(C(=O)c2ccco2)[C@H]1C1CCCCC1` [Compound 128, (S)-3-cyclohexyl-4-(furan-2-carbonyl)-1,3,4,5-tetrahydro-2H-benzo[e][1,4]diazepin-2-one], the AC1.4 amounted to 0.06 µM.

As to `CCC(CC)[C@H]1C(=O)Nc2ccccc2CN1C(N)=O` [Compound 129, (S)-2-oxo-3-(pentan-3-yl)-1,2,3,5-tetrahydro-4H-benzo[e][1,4]diazepine-4-carboxamide], the AC1.4 is 0.10 µM.

As to `CC[C@H](C)[C@H]1C(=O)Nc2ccccc2CN1c1c(NC)c(=O)c1=O` [Compound 130, 3-((S)-3-((S)-sec-butyl)-2-oxo-1,2,3,5-tetrahydro-4H-benzo[e][1,4]diazepin-4-yl)-4-(methylamino)cyclobut-3-ene-1,2-dione], the AC1.4 came out at 0.06 µM.

With `CC[C@H](C)[C@H]1C(=O)Nc2ccccc2CN1c1c(N(C)C)c(=O)c1=O` [Compound 131, 3-((S)-3-((S)-sec-butyl)-2-oxo-1,2,3,5-tetrahydro-4H-benzo[e][1,4]diazepin-4-yl)-4-(dimethylamino)cyclobut-3-ene-1,2-dione], the AC1.4 was 0.02 µM.

Turning to `CC[C@H](C)[C@H]1C(=O)Nc2ccccc2CN1c1c(NCCO)c(=O)c1=O` [Compound 132, 3-((S)-3-((S)-sec-butyl)-2-oxo-1,2,3,5-tetrahydro-4H-benzo[e][1,4]diazepin-4-yl)-4-((2-hydroxyethyl)amino)cyclobut-3-ene-1,2-dione], the AC1.4 is 0.07 µM.

With `CC[C@H](C)[C@H]1C(=O)Nc2ccccc2CN1C(=O)N(C)CCN(C)C` [Compound 133, (S)-3-((S)-sec-butyl)-N-(2-(dimethylamino)ethyl)-N-methyl-2-oxo-1,2,3,5-tetrahydro-4H-benzo[e][1,4]diazepine-4-carboxamide], the AC1.4 was determined as 0.48 µM.

For the compound `CC[C@H](C)[C@H]1C(=O)Nc2ccccc2CN1C(=O)N1CCC(O)CC1` [Compound 134, (S)-3-((S)-sec-butyl)-4-(4-hydroxypiperidine-1-carbonyl)-1,3,4,5-tetrahydro-2H-benzo[e][1,4]diazepin-2-one], the AC1.4 was found to be 0.71 µM.

With `CC[C@H](C)[C@H]1C(=O)Nc2ccccc2CN1C(=O)N(CCO)C(C)C` [Compound 135, (S)-3-((S)-sec-butyl)-N-(2-hydroxyethyl)-N-isopropyl-2-oxo-1,2,3,5-tetrahydro-4H-benzo[e][1,4]diazepine-4-carboxamide], the AC1.4 worked out at 3.72 µM.

Turning to `CC[C@H](C)[C@H]1C(=O)Nc2ccccc2CN1C(=O)N1C[C@@H](O)[C@@H](O)C1` [Compound 137, (S)-3-((S)-sec-butyl)-4-((3R,4S)-3,4-dihydroxypyrrolidine-1-carbonyl)-1,3,4,5-tetrahydro-2H-benzo[e][1,4]diazepin-2-one], the AC1.4 turned out to be 3.35 µM.

Take `CC[C@H](C)[C@H]1C(=O)Nc2ccccc2CN1C(=O)NC1CN(C)C1` [Compound 138, (S)-3-((S)-sec-butyl)-N-(1-methylazetidin-3-yl)-2-oxo-1,2,3,5-tetrahydro-4H-benzo[e][1,4]diazepine-4-carboxamide]: the AC1.4 came to 0.52 µM.

As for `CC[C@H](C)[C@H]1C(=O)Nc2ccccc2CN1C(=O)NC1CN(C2COC2)C1` [Compound 139, (S)-3-((S)-sec-butyl)-N-(1-(oxetan-3-yl)azetidin-3-yl)-2-oxo-1,2,3,5-tetrahydro-4H-benzo[e][1,4]diazepine-4-carboxamide], the AC1.4 was 0.93 µM.

Consider `CC[C@H](C)[C@H]1C(=O)Nc2ccccc2CN1C(=O)N1C[C@@H](O)[C@H](O)C1` [Compound 140, (S)-3-((S)-sec-butyl)-4-((3R,4R)-3,4-dihydroxypyrrolidine-1-carbonyl)-1,3,4,5-tetrahydro-2H-benzo[e][1,4]diazepin-2-one], for which the AC1.4 is 4.74 µM.

For `CC[C@H](C)[C@H]1C(=O)Nc2ccccc2CN1C(=O)N[C@H]1CCN(CCO)C1` [Compound 141, (S)-3-((S)-sec-butyl)-N-((S)-1-(2-hydroxyethyl)pyrrolidin-3-yl)-2-oxo-1,2,3,5-tetrahydro-4H-benzo[e][1,4]diazepine-4-carboxamide], the AC1.4 was 0.54 µM.

`CC[C@H](C)[C@H]1C(=O)Nc2ccccc2CN1C(=O)NC1CCNCC1` [Compound 142, (S)-3-((S)-sec-butyl)-2-oxo-N-(piperidin-4-yl)-1,2,3,5-tetrahydro-4H-benzo[e][1,4]diazepine-4-carboxamide]: the AC1.4 was determined as 0.36 µM.

In the case of `CC[C@H](C)[C@H]1C(=O)Nc2ccccc2CN1C(=O)N[C@@H]1CCN(C)C1` [Compound 143, (S)-3-((S)-sec-butyl)-N-((R)-1-methylpyrrolidin-3-yl)-2-oxo-1,2,3,5-tetrahydro-4H-benzo[e][1,4]diazepine-4-carboxamide], the AC1.4 is 0.35 µM.
